This data set concerns CCRIS mutagenicity, Ames/micronucleus/aberration tests. Nature of the data set: CCRIS mutagenicity studies.
[1] abbreviates: Test System: AMES SALMONELLA TYPHIMURIUM, Strain/Indicator: TA98, Metabolic Activation: NONE, Method: STANDARD PLATE.
Setting [2] is: Test System: AMES SALMONELLA TYPHIMURIUM, Strain/Indicator: TA98, Metabolic Activation: RAT, LIVER, S-9, AROCLOR 1254, Method: STANDARD PLATE.
Setting [3] is: Test System: AMES SALMONELLA TYPHIMURIUM, Strain/Indicator: TA100, Metabolic Activation: NONE, Method: STANDARD PLATE.
The mark [4] stands for this setting: Test System: AMES SALMONELLA TYPHIMURIUM, Strain/Indicator: TA100, Metabolic Activation: RAT, LIVER, S-9, AROCLOR 1254, Method: STANDARD PLATE.
Setting [5] is: Test System: AMES SALMONELLA TYPHIMURIUM, Strain/Indicator: TA1535, Metabolic Activation: NONE, Method: STANDARD PLATE.
Setting [6] is: Test System: AMES SALMONELLA TYPHIMURIUM, Strain/Indicator: TA1535, Metabolic Activation: RAT, LIVER, S-9, AROCLOR 1254, Method: STANDARD PLATE.

Active and inactive are the calls of the source. How the calls were made is not given here.

For `CC(C)CCC[C@@H](C)[C@H]1CC[C@H]2[C@@H]3C[C@@H](O)[C@@]4(O)C[C@@H](O)CC[C@]4(C)[C@H]3CC[C@]12C`, the mutagenic call is “active; positive” (Test System: AMES SALMONELLA TYPHIMURIUM, Strain/Indicator: TA97, Metabolic Activation: NONE, Method: STANDARD PLATE); “inactive; negative” (Test System: AMES SALMONELLA TYPHIMURIUM, Strain/Indicator: TA97, Metabolic Activation: RAT, LIVER, S-9, AROCLOR 1254, Method: STANDARD PLATE); “active; positive” under setting [1]; “inactive; negative” under setting [2]; “active; positive” under setting [3]; “inactive; negative” under setting [4]. The mutagenic call reads like this: (Test System: AMES SALMONELLA TYPHIMURIUM, Strain/Indicator: TA102, Metabolic Activation: NONE, Method: STANDARD PLATE) “active; positive”; (Test System: AMES SALMONELLA TYPHIMURIUM, Strain/Indicator: TA102, Metabolic Activation: RAT, LIVER, S-9, AROCLOR 1254, Method: STANDARD PLATE) “inactive; negative”; under setting [5], “active; positive”; under setting [6], “active; positive”; (Test System: CHINESE HAMSTER V-79, Strain/Indicator: V-79/8-AZAGUANINE, Metabolic Activation: NONE) “active; positive”; (Test System: CHINESE HAMSTER V-79, Strain/Indicator: V-79/OUABAIN, Metabolic Activation: NONE) “inactive; negative”. Also, the mutagenic call by setting is: (Test System: IN VITRO CHROMOSOMAL ABERRATIONS, Strain/Indicator: CHINESE HAMSTER OVARY EPITHELIAL (CHO-K1) CELLS, Metabolic Activation: NONE) “active; positive (structural changes)”; (Test System: IN VITRO CHROMOSOMAL ABERRATIONS, Strain/Indicator: CHINESE HAMSTER OVARY EPITHELIAL (CHO-K1) CELLS, Metabolic Activation: RAT, LIVER, S-9, AROCLOR 1254) “active; positive (structural changes); lower response in presence of s-9”.

As for `Cc1ccc(S(=O)(=O)OCc2ccc([N+](=O)[O-])cc2)cc1`, the mutagenic call under setting [3] was “active; positive”.

In the case of `O=C1c2cc(S(=O)(=O)O)ccc2C(=O)c2c1cccc2[N+](=O)[O-]`, the mutagenic call reads like this: under setting [1], “active; positive”; under setting [2], “active; positive”; under setting [4], “inactive; negative”; under setting [5], “inactive; negative”; under setting [6], “inactive; negative”; (Test System: AMES SALMONELLA TYPHIMURIUM, Strain/Indicator: TA1537, Metabolic Activation: NONE, Method: STANDARD PLATE) “active; positive”. Also, the mutagenic call by setting is: (Test System: AMES SALMONELLA TYPHIMURIUM, Strain/Indicator: TA1537, Metabolic Activation: RAT, LIVER, S-9, AROCLOR 1254, Method: STANDARD PLATE) “active; positive”; (Test System: AMES SALMONELLA TYPHIMURIUM, Strain/Indicator: TA1538, Metabolic Activation: NONE, Method: STANDARD PLATE) “active; positive”; (Test System: AMES SALMONELLA TYPHIMURIUM, Strain/Indicator: TA1538, Metabolic Activation: RAT, LIVER, S-9, AROCLOR 1254, Method: STANDARD PLATE) “active; positive”.

Turning to `CC(=O)CN(CC(C)O)N=O` (stereo not given), the mutagenic call is, setting by setting: (Test System: AMES SALMONELLA TYPHIMURIUM, Strain/Indicator: TA100, Metabolic Activation: HAMSTER, LIVER, S-9, 3-METHYLCHOLANTHRENE, Method: PREINCUBATION) “active; positive”; (Test System: AMES SALMONELLA TYPHIMURIUM, Strain/Indicator: TA100, Metabolic Activation: HAMSTER, LIVER, S-9, PHENOBARBITAL, Method: PREINCUBATION) “active; positive”; (Test System: AMES SALMONELLA TYPHIMURIUM, Strain/Indicator: TA100, Metabolic Activation: HAMSTER, LIVER, S-9, Method: PREINCUBATION) “active; positive”; (Test System: AMES SALMONELLA TYPHIMURIUM, Strain/Indicator: TA100, Metabolic Activation: HUMAN, LIVER, S-9, Method: PREINCUBATION) “active; positive”; (Test System: AMES SALMONELLA TYPHIMURIUM, Strain/Indicator: TA100, Metabolic Activation: MONKEY, LIVER, S-9, Method: PREINCUBATION) “active; positive”; (Test System: AMES SALMONELLA TYPHIMURIUM, Strain/Indicator: TA100, Metabolic Activation: MOUSE, LIVER, S-9, 3-METHYLCHOLANTHRENE, Method: PREINCUBATION) “active; positive”. The mutagenic call reads like this: (Test System: AMES SALMONELLA TYPHIMURIUM, Strain/Indicator: TA100, Metabolic Activation: MOUSE, LIVER, S-9, PHENOBARBITAL, Method: PREINCUBATION) “active; positive”; (Test System: AMES SALMONELLA TYPHIMURIUM, Strain/Indicator: TA100, Metabolic Activation: MOUSE, LIVER, S-9, Method: PREINCUBATION) “active; positive”; (Test System: AMES SALMONELLA TYPHIMURIUM, Strain/Indicator: TA100, Metabolic Activation: RABBIT, LIVER, S-9, Method: PREINCUBATION) “active; positive”; (Test System: AMES SALMONELLA TYPHIMURIUM, Strain/Indicator: TA100, Metabolic Activation: RAT, LIVER, CYTOSOL, PCB, Method: PREINCUBATION) “active; positive”; (Test System: AMES SALMONELLA TYPHIMURIUM, Strain/Indicator: TA100, Metabolic Activation: RAT, LIVER, MICROSOMES AND CYTOSOL, PCB, Method: PREINCUBATION) “active; positive”; (Test System: AMES SALMONELLA TYPHIMURIUM, Strain/Indicator: TA100, Metabolic Activation: RAT, LIVER, MICROSOMES AND G6PDH, PCB, Method: PREINCUBATION) “active; positive”. In addition, the mutagenic call (Test System: AMES SALMONELLA TYPHIMURIUM, Strain/Indicator: TA100, Metabolic Activation: RAT, LIVER, MICROSOMES, PCB, Method: PREINCUBATION) is “active; positive”; the mutagenic call (Test System: AMES SALMONELLA TYPHIMURIUM, Strain/Indicator: TA100, Metabolic Activation: RAT, LIVER, S-9 (HEATED), PCB, Method: PREINCUBATION) was “active; positive”; the mutagenic call (Test System: AMES SALMONELLA TYPHIMURIUM, Strain/Indicator: TA100, Metabolic Activation: RAT, LIVER, S-9, 3-METHYLCHOLANTHRENE, Method: PREINCUBATION) is “active; positive”; the mutagenic call (Test System: AMES SALMONELLA TYPHIMURIUM, Strain/Indicator: TA100, Metabolic Activation: RAT, LIVER, S-9, PCB, Method: PREINCUBATION) was “active; positive”; the mutagenic call (Test System: AMES SALMONELLA TYPHIMURIUM, Strain/Indicator: TA100, Metabolic Activation: RAT, LIVER, S-9, PHENOBARBITAL, Method: PREINCUBATION) is “active; positive”; the mutagenic call (Test System: AMES SALMONELLA TYPHIMURIUM, Strain/Indicator: TA100, Metabolic Activation: RAT, LIVER, S-9, Method: PREINCUBATION) is “active; positive”. For the same molecule, the mutagenic call by setting is: (Test System: AMES SALMONELLA TYPHIMURIUM, Strain/Indicator: TA100, Metabolic Activation: RAT, LIVER, S-9 WITHOUT NADP+, PCB, Method: PREINCUBATION) “active; positive”; (Test System: AMES SALMONELLA TYPHIMURIUM, Strain/Indicator: TA100, Method: PREINCUBATION) “active; positive”; (Test System: CHINESE HAMSTER V-79, Strain/Indicator: V-79/OUABAIN, Metabolic Activation: HAMSTER, HEPATOCYTES, Method: CELL-MEDIATED) “active; positive”.

(Values after PubChem BioAssay AID1259407 (Chemical Carcinogenesis Research Information System (CCRIS), 2018).)
